What all share (assay type): cell-based
For one test, the target named is T1, PrRPR V145A (Homo sapiens, UniProt P49683, V145A).
T1 construct: expressed in transfected cells; host or cells: AD293 cells
In words: BRET2 Gq dissociation, V145A. Particulars: V145A (3.36), Gq-coupling, AD293 cells; mean ± S.E.M., n = 3; P <0.0001 vs WT; read-out: BRET2 pEC50 (converted). How it is done:
(§1) AD293 cells (Agilent) were propagated in Dulbecco’s Modified Eagle Medium (DMEM, Thermo Fisher Scientific), enriched with 10% fetal bovine serum (FBS, Thermo Fisher Scientific), and maintained at 37 °C in a 5% CO2 environment. Cells were then seeded in 6-well dishes at a density of 130,000–150,000 cells per mL and allowed to incubate overnight. On the next day, cells were transfected with plasmids at a 1:1:1:1 ratio for receptor:Gα-RLuc8:Gβ:Gγ-GFP2[52]. PEI MAX 40 K (BIOHUB) was utilized to form complex with the plasmids at a ratio of 3 µL PEI per µg of plasmids, in OptiMEM (Gibco-Thermo Fisher Scientific) at a concentration of 10 ng plasmids per µL OptiMEM. After 24 h of incubation, the culture was harvested by centrifugation with PBS. The cell suspension was then allocated into a white 384-well plate at a volume of 30 µL per well, followed by the addition of 10 µL of freshly prepared 50 µM coelenterazine 400a (Yeasen). […] Plates were subsequently read in a BioTek Synergy H1 microplate reader (BioTek) equipped with 395 nm (RLuc8-coelenterazine 400a) and 510 nm (GFP2) emission filters. BRET2 ratios were calculated as the ratio of the GFP2 emission to RLuc8 emission. […]
(§2) Supplementary Fig. S4 | Effects of mutations in the ligand-binding pocket and G protein intereface of Gq coupled PrRPR by BRET2 assay. […] BRET2 assay signals were measured after stimulation with PrRP20. […]
On the technique in general: Bioluminescence resonance energy transfer reports proximity on the nanometre scale.

In a further test the target is T2, PrRPR E212A (Homo sapiens, UniProt P49683, E212A).
T2 construct: expressed in transfected cells; host or cells: AD293 cells
In words: BRET2 Gq dissociation, E212A. Particulars: E212A (45.51), Gq-coupling, AD293 cells; mean ± S.E.M., n = 3; P <0.0001 vs WT; read-out: BRET2 pEC50 (converted). How it is done: as §1, §2

A further test addresses T3, PrRPR Y225A (Homo sapiens, UniProt P49683, Y225A).
T3 construct: Flag; expressed in transfected cells; host or cells: AD293 cells
Briefly: BRET2 Gq dissociation, Y225A. Particulars: Y225A (5.38), Gq-coupling, AD293 cells; mean ± S.E.M., n = 3; P <0.0001 vs WT; read-out: BRET2 pEC50 (converted). How it is done: as §1, §2

The target of a further test is T4, PrRPR L229A (Homo sapiens, UniProt P49683, L229A).
T4 construct: Flag; expressed in transfected cells; host or cells: AD293 cells
Briefly: BRET2 Gq dissociation, L229A. Particulars: L229A (5.42), Gq-coupling, AD293 cells; mean ± S.E.M., n = 3; P <0.0001 vs WT; read-out: BRET2 pEC50 (converted). How it is done:
as §1, §2

The target in a further test is T5, PrRPR L294A (Homo sapiens, UniProt P49683, L294A).
T5 construct: Flag; expressed in transfected cells; host or cells: AD293 cells
Briefly: BRET2 Gq dissociation, L294A. Particulars: L294A (6.51), Gq-coupling, AD293 cells; mean ± S.E.M., n = 3; P <0.0001 vs WT; read-out: BRET2 pEC50 (converted). How it is done: as §1, §2

A further test addresses T6, PrRPR D302A (Homo sapiens, UniProt P49683, D302A).
T6 construct: Flag; expressed in transfected cells; host or cells: AD293 cells
Briefly: BRET2 Gq dissociation, D302A. Conditions: D302A (6.59), Gq-coupling, AD293 cells; mean ± S.E.M., n = 3; P <0.0001 vs WT; read-out: BRET2 pEC50 (converted). How it is done: as §1, §2

In the next test the target is T7, PrRPR Q317A (Homo sapiens, UniProt P49683, Q317A).
T7 construct: Flag; expressed in transfected cells; host or cells: AD293 cells
Briefly: BRET2 Gq dissociation, Q317A. Particulars: Q317A (7.35), Gq-coupling, AD293 cells; mean ± S.E.M., n = 3; P <0.0001 vs WT; read-out: BRET2 pEC50 (converted). How it is done:
as §1, §2

Another test has as its target T8, PrRPR WT (Homo sapiens, UniProt P49683).
T8 construct: expressed in transfected cells; host or cells: AD293 cells
T8 sequence (P49683 1-370): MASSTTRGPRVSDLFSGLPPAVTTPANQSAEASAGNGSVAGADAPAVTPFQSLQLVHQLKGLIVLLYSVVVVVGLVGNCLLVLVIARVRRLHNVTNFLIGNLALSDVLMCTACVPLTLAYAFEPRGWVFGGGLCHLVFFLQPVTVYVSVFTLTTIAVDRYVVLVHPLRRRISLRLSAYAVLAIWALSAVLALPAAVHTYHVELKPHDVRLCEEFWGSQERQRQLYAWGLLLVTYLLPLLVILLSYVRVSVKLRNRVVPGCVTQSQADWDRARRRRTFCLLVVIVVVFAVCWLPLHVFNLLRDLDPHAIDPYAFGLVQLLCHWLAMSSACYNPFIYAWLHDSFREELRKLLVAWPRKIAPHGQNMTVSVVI
Briefly: BRET2 Gi dissociation, WT. Conditions: Gi-coupling, AD293 cells. How it is done: (§3) AD293 cells (Agilent) were propagated in Dulbecco’s Modified Eagle Medium (DMEM, Thermo Fisher Scientific), enriched with 10% fetal bovine serum (FBS, Thermo Fisher Scientific), and maintained at 37 °C in a 5% CO2 environment. Cells were then seeded in 6-well dishes at a density of 130,000–150,000 cells per mL and allowed to incubate overnight. On the next day, cells were transfected with plasmids at a 1:1:1:1 ratio for receptor:Gα-RLuc8:Gβ:Gγ-GFP2[52]. PEI MAX 40 K (BIOHUB) was utilized to form complex with the plasmids at a ratio of 3 µL PEI per µg of plasmids, in OptiMEM (Gibco-Thermo Fisher Scientific) at a concentration of 10 ng plasmids per µL OptiMEM. After 24 h of incubation, the culture was harvested by centrifugation with PBS. The cell suspension was then allocated into a white 384-well plate at a volume of 30 µL per well, followed by the addition of 10 µL of freshly prepared 50 µM coelenterazine 400a (Yeasen). Following a 15-min equilibration period, cells were treated with 10 µL of ligand for an additional 5 min. Plates were subsequently read in a BioTek Synergy H1 microplate reader (BioTek) equipped with 395 nm (RLuc8-coelenterazine 400a) and 510 nm (GFP2) emission filters. BRET2 ratios were calculated as the ratio of the GFP2 emission to RLuc8 emission. Data were normalized to the baseline response of the ligand. […]

The target of a further test is T9, PrRPR T117A (Homo sapiens, UniProt P49683, T117A).
T9 construct: expressed in transfected cells; host or cells: AD293 cells
In words: BRET2 Gi dissociation, T117A. Conditions: T117A (2.61), Gi-coupling, AD293 cells; mean ± S.E.M., n = 3; P <0.0001 vs WT; read-out: BRET2 pEC50 (converted). How it is done:
as §3

A further test deals with T10, PrRPR P142A (Homo sapiens, UniProt P49683, P142A).
T10 construct: expressed in transfected cells; host or cells: AD293 cells
Briefly: BRET2 Gi dissociation, P142A. Particulars: P142A (3.33), Gi-coupling, AD293 cells; mean ± S.E.M., n = 3; P 0.0035 vs WT; read-out: BRET2 pEC50 (converted). How it is done: as §3

SMILES strings stand for the structures. Peptide text beside a SMILES is read from it.

T1 sequence (P49683 whole entry V145A): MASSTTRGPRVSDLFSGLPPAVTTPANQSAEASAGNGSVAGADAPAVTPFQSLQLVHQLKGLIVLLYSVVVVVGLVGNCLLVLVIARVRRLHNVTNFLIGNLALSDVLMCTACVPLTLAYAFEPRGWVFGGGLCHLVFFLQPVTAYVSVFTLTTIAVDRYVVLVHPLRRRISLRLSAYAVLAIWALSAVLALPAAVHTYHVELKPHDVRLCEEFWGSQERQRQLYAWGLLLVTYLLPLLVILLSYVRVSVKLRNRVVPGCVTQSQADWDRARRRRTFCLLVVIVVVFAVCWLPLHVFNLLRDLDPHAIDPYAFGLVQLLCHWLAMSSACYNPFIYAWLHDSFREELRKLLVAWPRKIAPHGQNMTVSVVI
T4 sequence (P49683 whole entry L229A): as the sequence (P49683 whole entry V145A) above, with A145V, L229A counted along it
T9 sequence (P49683 whole entry T117A): as the sequence (P49683 whole entry V145A) above, with T117A, A145V counted along it
T5 sequence (P49683 whole entry L294A): as the sequence (P49683 whole entry V145A) above, with A145V, L294A counted along it
T10 sequence (P49683 whole entry P142A): as the sequence (P49683 whole entry V145A) above, with P142A, A145V counted along it
T3 sequence (P49683 whole entry Y225A): as the sequence (P49683 whole entry V145A) above, with A145V, Y225A counted along it
T6 sequence (P49683 whole entry D302A): as the sequence (P49683 whole entry V145A) above, with A145V, D302A counted along it
T7 sequence (P49683 whole entry Q317A): as the sequence (P49683 whole entry V145A) above, with A145V, Q317A counted along it
T2 sequence (P49683 whole entry E212A): as the sequence (P49683 whole entry V145A) above, with A145V, E212A counted along it

For `CC[C@H](C)[C@H](NC(=O)CNC(=O)[C@H](CCCNC(=N)N)NC(=O)[C@H](CO)NC(=O)[C@H](C)NC(=O)[C@H](Cc1ccc(O)cc1)NC(=O)[C@H](Cc1c[nH]c2ccccc12)NC(=O)[C@H](C)NC(=O)[C@@H]1CCCN1C(=O)[C@H](CC(N)=O)NC(=O)[C@@H](NC(=O)[C@H](CC(=O)O)NC(=O)[C@@H]1CCCN1C(=O)[C@@H](N)[C@@H](C)O)[C@@H](C)CC)C(=O)N[C@@H](CCCNC(=N)N)C(=O)N1CCC[C@H]1C(=O)N[C@H](C(=O)NCC(=O)N[C@@H](CCCNC(=N)N)C(=O)N[C@@H](Cc1ccccc1)C(N)=O)C(C)C` [PrRP20] (H-TPDINPAWYASRGIRPVGRF-NH2), the EC50 is 4.79 nM on PrRPR V145A; 28.8 nM on PrRPR E212A; 178 nM at PrRPR Y225A; 20.4 nM on PrRPR L229A; 5.62 nM on PrRPR L294A; 151 nM at PrRPR D302A. Besides, the EC50 on PrRPR Q317A was 309 nM; at PrRPR WT (WT, 5 min ligand, mean ± S.E.M., n = 3 (triplicates), read-out: BRET2 pEC50 (converted)) it was 1.86 nM; at PrRPR T117A, 3470 nM; at PrRPR P142A, 6.46 nM. Besides, the BRET2 span at PrRPR WT (WT (reference for normalisation), n = 3) amounted to 100.00 %WT.

The record behind these values is PMC11369081, “Molecular mechanism of prolactin-releasing peptide recognition and signaling via its G protein-coupled receptor” (Cell Discovery, 2024).
